Laboratory results reported in US11124497B1, “Inhibitors of cysteine proteases and methods of use thereof” (priority 2020, dated 2021).
Where two headings read alike, the source gives them in different places.

Assays:
[1] = target: 229E mPRO (Human coronavirus 229E (HCoV-229E), UniProt P0C6X1); assay: 229E mPRO enzymatic assay; type: biochemical, Human Coronavirus (HCov) 229E
Procedure: Compounds were assayed using standard methods to assess compound activity and IC50. […] The assay buffer contained 20 mM of Tris-HCl (pH 7.3), 100 mM of NaCl, 1 mM of EDTA, 5 mM of TCEP and 0.1% BSA.
The compounds were added to an assay plate.
IC50 values of compounds were calculated with the GraphPad Prism software using the nonlinear regression model of log(inhibitor) vs. response—Variable slope (four parameters). The inhibition activity was calculated using the formula below, IC50 values was calculated using the Inhibition % data. Inhibition %=[(Sample−Average ZPE)/(Average HPE−Average ZPE)]*100%^# • ^#HEP: Hundred percent effect controls. […] Containing enzyme+substrate, no compound. • Sample: Compound activity testing wells. Containing compound+enzyme+substrate. • BG: Compound background control wells. Containing compound+substrate, no enzyme.

[2] = target: SARS-COV2 Mpro (Severe acute respiratory syndrome coronavirus 2 (2019-nCoV) (SARS-CoV-2), UniProt P0DTD1); assay: COVID-19 (nCoV-2019, SARS-CoV2) Mpro enzymatic assay; type: biochemical; settings: 25 nM Mpro, 25 μM substrate
[3] = tested on: HCoV 229E; assay: HCoV 229E cytopathic effect (CPE) assay; type: cell-based, Human Coronavirus (HCov) 229E; settings: unidentified human coronavirus, CellTiter Glo, read-out: 229 ECPE EC50
Procedure: Compounds were assayed using standard methods against multiple coronaviral strains, including HCoV 229E and OC43 strains. The antiviral activity of compounds was calculated based on the protection of the virus-induced CPE at each concentration normalized by the virus control.
Cytopathic effect (CPE) was measured by CellTiter Glo following the manufacturer's manual. The antiviral activity of compounds was calculated based on the protection of the virus-induced CPE at each concentration normalized by the virus control.

Sequence of 229E mPRO (P0C6X1 2966-3267 limits assumed): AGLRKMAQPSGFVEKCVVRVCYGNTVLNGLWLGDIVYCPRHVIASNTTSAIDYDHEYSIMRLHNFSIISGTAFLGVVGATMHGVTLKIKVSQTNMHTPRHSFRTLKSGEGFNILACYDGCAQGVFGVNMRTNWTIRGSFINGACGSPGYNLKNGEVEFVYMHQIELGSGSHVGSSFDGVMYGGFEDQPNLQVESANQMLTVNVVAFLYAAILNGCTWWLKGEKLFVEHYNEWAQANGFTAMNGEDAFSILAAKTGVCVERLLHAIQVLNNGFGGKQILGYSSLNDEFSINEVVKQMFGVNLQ

| Structure (SMILES) | IC50 ([1]; read-out: 229E mPRO IC50) [µM] | IC50 [2] [µM] | EC50 [3] [µM] | IC50 ([1]; 229E mPRO IC50 (μM)) [µM] |
| --- | --- | --- | --- | --- |
| COc1cccc2[nH]c(C(=O)N[C@@H](CC(C)C)C(=O)N[C@@H](C#N)Cc3cc(=O)[nH]c4ccccc34)cc12 (mixture of isomers) [Compound 237] | > 30 | > 30 |  |  |
| COc1cccc2[nH]c(C(=O)N[C@@H](CC(C)C)C(=O)N[C@H](C#N)Cc3cc[nH]n3)cc12 (mixture of isomers) [Compound 241] | > 30 | > 30 |  |  |
| COc1cccc2[nH]c(C(=O)N[C@@H](CC(C)C)C(=O)N[C@H](C#N)Cc3n[nH]c4ccccc34)cc12 (mixture of isomers) [Compound 245] | > 30 |  |  |  |
| COc1cccc2[nH]c(C(=O)N[C@@H](CC(C)C)C(=O)N[C@@H](C[C@@H]3CCNC3=O)C(C#N)N3CCCC3)cc12 (single isomer, unassigned) [331 (Isomer 1)] | < 22 |  | < 22 |  |
| COc1cccc2[nH]c(C(=O)N[C@@H](CC(C)C)C(=O)N[C@@H](C[C@@H]3CCNC3=O)C(C#N)N3CCCC3)cc12 (single isomer, unassigned) [331 (Isomer 2)] | < 22 |  |  |  |
| CC(C)C[C@H](NC(=O)CC(C)(O)c1ccc(Cl)cc1)C(=O)N[C@H](C#N)C[C@@H]1CCNC1=O (single isomer, unassigned) [365 (Isomer 1)] |  |  |  | 2 to 10 |
| COc1cccc2[nH]c(C(=O)N3CC(C45CC(C4)C5)C[C@H]3C(=O)N[C@H](C#N)C[C@@H]3CCNC3=O)cc12 (single isomer, unassigned) [385 (Isomer 1)] | < 22 |  | < 22 |  |
| COc1cccc2[nH]c(C(=O)N3CC(C45CC(C4)C5)C[C@H]3C(=O)N[C@H](C#N)C[C@@H]3CCNC3=O)cc12 (single isomer, unassigned) [385 (Isomer 2)] | < 22 |  |  |  |
| CC(C)(C)OC(=O)N1CCCCC12CCN([C@@H](CC1CC1)C(=O)N[C@H](C#N)C[C@@H]1CCNC1=O)C2=O (single isomer, unassigned) [473 (Isomer 1)] | > 30 |  |  |  |
| CC(C)(C)OC(=O)N1CCCCC12CCN([C@@H](CC1CC1)C(=O)N[C@H](C#N)C[C@@H]1CCNC1=O)C2=O (single isomer, unassigned) [473 (Isomer 2)] | > 30 | > 30 |  |  |
| COc1cccc2[nH]c(C(=O)N[C@@H](CC3CC3)C(=O)N[C@@]3(C#N)CC4CCC3[C@H]3C(=O)NC(=O)[C@@H]43)cc12 (single isomer, unassigned) [489 (Isomer 1)] | > 30 | > 30 |  |  |
| N#C[C@H](C[C@@H]1CCCNC1=O)NC(=O)[C@H](CC1CC1)NC(=O)c1cc2cccc(Cl)c2[nH]1 (single isomer, unassigned) [639 (Isomer 1)] | < 22 |  | < 22 |  |
| COc1cccc2[nH]c(C(=O)N[C@@H](CC(C)C)C(=O)N[C@H](C#N)C[C@@H]3CCNC3=O)cc12 [Compound 101, N-[(1S)-1-[[(1S)-1-cyano-2-[(3S)-2-oxopyrrolidin-3-yl]ethyl]carbamoyl]-3-methyl-butyl]-4-methoxy-1H-indole-2-carboxamide] | < 22 |  | < 22 |  |
| COc1cccc2[nH]c(C(=O)N[C@H](C(=O)N[C@H](C#N)C[C@@H]3CCNC3=O)[C@@H]3Cc4ccccc4O3)cc12 [Compound 147] | > 30 |  |  |  |
| COc1cccc2[nH]c(C(=O)N[C@H](C(=O)N[C@H](C#N)C[C@@H]3CCNC3=O)C3Cc4ccccc4C3)cc12 [Compound 149, N-[(1S)-2-[[(1S)-1-cyano-2-[(3S)-2-oxopyrrolidin-3-yl]ethyl]amino]-1-indan-2-yl-2-oxo-ethyl]-4-methoxy-1H-indole-2-carboxamide] | 2 to 10 |  | 2 to 10 |  |
| COc1cccc2[nH]c(C(=O)N[C@@H](Cc3cccc(Cl)c3)C(=O)N[C@H](C#N)C[C@@H]3CCNC3=O)cc12 [Compound 153] | 10 to 30 |  |  |  |
| COc1cccc2[nH]c(C(=O)N3C[C@H](OC(C)(C)C)C[C@H]3C(=O)N[C@H](C#N)C[C@@H]3CCNC3=O)cc12 [Compound 165, (2S,4R)-4-(tert-butoxy)-N—((S)-1-cyano-2-((S)-2-oxopyrrolidin-3-yl)ethyl)-1-(4-methoxy-1H-indole-2-carbonyl)pyrrolidine-2-carboxamide] | > 30 |  |  |  |
| COc1cccc2[nH]c(C(=O)N3C[C@H](C4CCCCC4)C[C@H]3C(=O)N[C@H](C#N)C[C@@H]3CCNC3=O)cc12 [Compound 167, (2S,4S)—N—((S)-1-cyano-2-((S)-2-oxopyrrolidin-3-yl)ethyl)-4-cyclohexyl-1-(4-methoxy-1H-indole-2-carbonyl)pyrrolidine-2-carboxamide] | 2 to 10 |  |  |  |
| COc1cccc2[nH]c(C(=O)N3CCC4(CC4)C[C@H]3C(=O)N[C@H](C#N)C[C@@H]3CCNC3=O)cc12 [Compound 183, (S)—N—((S)-1-cyano-2-((S)-2-oxopyrrolidin-3-yl)ethyl)-6-(4-methoxy-1H-indole-2-carbonyl)-6-azaspiro[2.5]octane-5-carboxamide] | 2 to 10 |  |  |  |
| N#C[C@H](C[C@@H]1CCNC1=O)NC(=O)[C@@H]1C[C@@H](c2ccccc2)CN1C(=O)/C=C/c1ccc(Cl)cc1F [Compound 209, (2S,4S)-1-((E)-3-(4-chloro-2-fluorophenyl)acryloyl)-N—((S)-1-cyano-2-((S)-2-oxopyrrolidin-3-yl)ethyl)-4-phenylpyrrolidine-2-carboxamide] | 10 to 30 |  |  |  |
| N#C[C@H](C[C@@H]1CCNC1=O)NC(=O)[C@@H]1CCCNN1C(=O)/C=C/c1ccc(Cl)cc1F [Compound 213, (S)-2-((E)-3-(4-chloro-2-fluorophenyl)acryloyl)-N—((S)-1-cyano-2-((S)-2-oxopyrrolidin-3-yl)ethyl)hexahydropyridazine-3-carboxamide] | > 30 |  |  |  |

| Structure (SMILES) | IC50 ([1]; read-out: 229E mPRO IC50) [µM] | IC50 [2] [µM] | EC50 [3] [µM] | IC50 ([1]; 229E mPRO IC50 (μM)) [µM] |
| --- | --- | --- | --- | --- |
| CN1CCCC[C@]12CCN([C@@H](CC1CC1)C(=O)N[C@H](C#N)C[C@@H]1CCNC1=O)C2=O [Compound 273C] | 2 to 10 |  |  |  |
| CCCN1C(=N)C([C@H](C[C@@H]2CCNC2=O)NC(=O)[C@H](CC(C)C)NC(=O)c2cc3c(OC)cccc3[nH]2)OC1=O (stereo partly drawn) [Compound 355] | 2 to 10 |  | > 30 |  |
| COc1cccc2[nH]c(C(=O)N[C@@H](CC(C)C)C(=O)N[C@@H](C[C@@H]3CCNC3=O)C3OC(=O)N(C(C)C)C3=N)cc12 (stereo partly drawn) [Compound 357] | > 30 |  |  |  |
| COc1cccc2[nH]c(C(=O)N[C@@H](CC(C)C)C(=O)N[C@@H](C[C@@H]3CCNC3=O)C3OC(=O)N(c4ccccc4)C3=N)cc12 (stereo partly drawn) [Compound 359] | 10 to 30 |  |  |  |
| CCCOc1cccc2[nH]c(C(=O)N[C@@H](CC(C)C)C(=O)N[C@H](C#N)C[C@@H]3CCNC3=O)cc12 [Compound 379] | < 22 |  | < 22 |  |
| COc1cccc2[nH]c(C(=O)N3CC4(CCOCC4)CC3C(=O)N[C@H](C#N)C[C@@H]3CCNC3=O)cc12 (stereo partly drawn) [Compound 387] | > 30 |  |  |  |
| COc1cccc2[nH]c(C(=O)N3C[C@H](OC)C[C@H]3C(=O)N[C@H](C#N)C[C@@H]3CCNC3=O)cc12 [Compound 407] | < 22 |  | < 22 |  |
| N#C[C@H](C[C@@H]1CCNC1=O)NC(=O)[C@H](CC1CC1)N1CCC2(CCCN2)C1=O (stereo partly drawn) [Compound 471] | 10 to 30 |  |  |  |
| N#C[C@H](C[C@@H]1CCNC1=O)NC(=O)[C@@H]1CS[C@H]2CC[C@H](NC(=O)OCC3c4ccccc4-c4ccccc43)C(=O)N21 [Compound 477] | > 30 |  |  |  |
| CC(C)C[C@H](NC(=O)c1cc2c(OC(F)F)cccc2[nH]1)C(=O)N[C@H](C#N)C[C@@H]1CCNC1=O [Compound 509] | < 22 |  | < 22 |  |
| N#C[C@H](C[C@@H]1CCNC1=O)NC(=O)[C@H](CC1CC1)NC(=O)c1cc2cc(Cl)ccc2[nH]1 [Compound 519] | < 22 |  | < 22 |  |
| N#C[C@H](C[C@@H]1CCNC1=O)NC(=O)[C@H](CC1CC1)NC(=O)c1cc2cccc(Cl)c2[nH]1 [Compound 531, 7-chloro-N-[(1S)-2-[[(1S)-1-cyano-2-[(3S)-2-oxopyrrolidin-3-yl]ethyl]amino]-1-(cyclopropylmethyl)-2-oxo-ethyl]-1H-indole-2-carboxamide] | < 22 |  | < 22 |  |
| CCO[C@@H]1C[C@@H](C(=O)N[C@H](C#N)C[C@@H]2CCNC2=O)N(C(=O)c2cc3c(OC)cccc3[nH]2)C1 [Compound 535] | > 30 |  |  |  |
| COc1cccc2[nH]c(C(=O)N[C@@H](CC3CCC3)C(=O)N[C@H](C#N)C[C@@H]3CCNC3=O)cc12 [Compound 577] | < 22 |  | < 22 |  |
| CCCNC(=O)OC(C#N)[C@H](C[C@@H]1CCNC1=O)NC(=O)[C@H](CC(C)C)NC(=O)c1cc2c(OC)cccc2[nH]1 (stereo partly drawn) [Compound 581] | > 30 |  |  |  |
| COc1cccc2[nH]c(C(=O)N[C@@H](CC(C)C)C(=O)N[C@@H](C[C@@H]3CCNC3=O)C(C#N)OC(=O)NC(C)C)cc12 (stereo partly drawn) [Compound 583] | > 30 |  |  |  |
| CC(C)C[C@H](NC(=O)/C=C/c1ccc(Cl)cc1F)C(=O)N[C@H](C#N)C[C@@H]1CCNC1=O [Compound 598] | 2 to 10 |  | < 22 |  |
| COc1cccc2[nH]c(C(=O)N[C@@H](CC(C)(C)C)C(=O)N[C@H](C#N)C[C@@H]3CCCNC3=O)cc12 [Compound 643, N-[(1S)-1-[[(1S)-1-cyano-2-[(3S)-2-oxo-3-piperidyl]ethyl]carbamoyl]-3,3-dimethyl-butyl]-4-methoxy-1H-indole-2-carboxamide] | < 22 |  | < 22 |  |
| COc1ccc(Cl)c2[nH]c(C(=O)N[C@@H](CC(C)(C)C)C(=O)N[C@H](C#N)C[C@@H]3CCCNC3=O)cc12 [Compound 737] |  |  | < 22 |  |
| COc1c(Cl)ccc2[nH]c(C(=O)N[C@@H](CC(C)(C)C)C(=O)N[C@H](C#N)C[C@@H]3CCCNC3=O)cc12 [Compound 739] |  |  | < 22 |  |
| CC(C)(C)C[C@H](NC(=O)c1cc2ccc(Cl)cc2[nH]1)C(=O)N[C@H](C#N)C[C@@H]1CCCNC1=O [Compound 745] |  |  | < 22 |  |
